Converted amounts (≈) assume the structure as drawn. Where two headings read alike, the source gives them in different places. Starred links: 1 amine or outer side, 2 acyl side, 3 side chain; linkers in the order of their positions; H or OH if unused. Non-standard residues stand in square brackets, D forms with d. Residues, ends and D or L forms follow the SMILES beside them. *: point of attachment. 5FAM = O=C1OC2(c3ccc(O)cc3Oc3cc(O)ccc32)c2ccc(C(=O)*)cc21; δOrn(α-TMG) = CN(C)C(=N[C@@H](CCCN[*:1])C(=O)[*:2])N(C)C; Ac6c = NC1(C(=O)O)CCCCC1; Orn = NCCC[C@H](N)C(=O)O
System: C. neoformans 1841 (serotype D)
Conditions: for activity of Cf-labeled peptide relative to the corresponding unlabeled peptide: C. neoformans 1841
[1] = C. neoformans 1841, read after 24 h, mean of three replicates (n = 3)
[2] = C. neoformans 1841, read after 48 h, mean of three replicates (n = 3)

Row | Compound | MIC (mg/L) 24 h, Cf-labeled peptides (1841 (serotype D, 24 h)) | MIC (after 48 h) (1841 (serotype D, 48 h)) | MIC (mg/L) 48 h, Cf-labeled peptides (1841 (serotype D, 48 h)) | activity of Cf-labeled peptide relative to the corresponding unlabeled peptide | MIC (mg/L) 24 h, Cf-labeled peptides [1] | MIC (mg/L) 48 h, Cf-labeled peptides [2]
1 | CC[C@H](C)[C@H](NC(=O)[C@@H](CCCNC(=N)N)NC(=O)[C@H](CCCNC(=N)N)NC(=O)[C@@H]1CCCN1C(=O)[C@@H]1CCCN1C(=O)[C@H](CCCNC(=N)N)NC(=O)[C@@H]1CCCN1C(=O)[C@H](CCCNC(=N)N)NC(=O)[C@@H]1CCCN1C(=O)[C@H](CC(C)C)NC(=O)[C@H](Cc1ccc(O)cc1)NC(=O)[C@@H]1CCCN1C(=O)[C@@H]1CCCN1C(=O)[C@H](CCCCN)NC(=O)[C@H](CC(=O)O)NC(=O)[C@@H](NC(=O)c1ccc2c(c1)C(=O)OC21c2ccc(O)cc2Oc2cc(O)ccc21)C(C)C)C(=O)N[C@@H](Cc1ccc(O)cc1)C(=O)N[C@@H](CC(N)=O)C(=O)N[C@H](CCCNC(=N)N)C(N)=O [Cf-Onc112] (5FAM-VDKPPYLPRPRPPR[dR]IYN[dR]-NH2) | 4 to 8 mg/L | 6.7 µM (≈ 18.4 µg/mL) | 4 to 8 mg/L | slightly more active |  | 
2 | CC[C@H](C)[C@H](NC(=O)[C@H](CCCNC(=O)c1ccc2c(c1)C(=O)OC21c2ccc(O)cc2Oc2cc(O)ccc21)N=C(N(C)C)N(C)C)C(=O)N[C@@H](CCCN)C(=O)N[C@H](C(=O)N[C@@H](CCCN)C(=O)N[C@@H](CCCNC(=N)N)C(=O)N1CCC[C@H]1C(=O)N[C@H](C(=O)N[C@@H](Cc1ccc(O)cc1)C(=O)N[C@@H](CCCN)C(=O)N1CCC[C@H]1C(=O)N[C@@H](CCCNC(=N)N)C(=O)N1CCC[C@H]1C(=O)N[C@@H](CCCNC(=N)N)C(=O)N1CCC[C@H]1C(=O)N1CCC[C@H]1C(=O)N[C@@H](Cc1c[nH]cn1)C(=O)N1CCC[C@H]1C(=O)N[C@@H](CCCNC(=N)N)C(=O)N[C@@H](CC(C)C)C(=O)O)C(C)C)[C@@H](C)CC [Cf-Api795] (5FAM-[δOrn(α-TMG)]I[Orn]I[Orn]RPVY[Orn]PRPRPPHPRL-OH) |  | 3.2 µM (≈ 9.21 µg/mL) |  | slightly more active | 4 mg/L (≈ 1.39 µM) | 4 mg/L (≈ 1.39 µM)
3 | CC[C@H](C)[C@H](NC(=O)[C@H](Cc1ccc(O)cc1)NC(=O)[C@@H](NC(=O)[C@@H]1CCCN1C(=O)[C@H](CCCNC(=N)N)NC(=O)[C@H](CC(N)=O)NC(=O)[C@H](CC(N)=O)NC(=O)[C@H](CCCNC(=O)c1ccc2c(c1)C(=O)OC21c2ccc(O)cc2Oc2cc(O)ccc21)N=C(N(C)C)N(C)C)C(C)C)C(=O)N1CCC[C@H]1C(=O)N[C@@H](CCCNC(=N)N)C(=O)N1CCC[C@H]1C(=O)N[C@@H](CCCNC(=N)N)C(=O)N1CCC[C@H]1C(=O)N1CCC[C@H]1C(=O)N[C@@H](Cc1c[nH]cn1)C(=O)N1CCC[C@H]1C(=O)N[C@@H](CCCNC(=N)N)C(=O)N[C@@H](CC(C)C)C(N)=O [Cf-Api88] (5FAM-[δOrn(α-TMG)]NNRPVYIPRPRPPHPRL-NH2) | 32 mg/L (≈ 12.1 µM) | 7.0 µM (≈ 18.5 µg/mL) | 32 to 64 mg/L | slightly less active |  | 
4 | CC(C)C[C@H](NC(=O)[C@H](Cc1ccc(O)cc1)NC(=O)[C@@H]1CCCN1C(=O)[C@H](CCCNC(=N)N)NC(=O)[C@@H]1CCCN1C(=O)[C@H](CCCCN)NC(=O)[C@H](CC(=O)O)NC(=O)[C@@H]1CCCN1C(=O)[C@H](CCCNC(=N)N)NC(=O)C1(NC(=O)c2ccc3c(c2)C(=O)OC32c3ccc(O)cc3Oc3cc(O)ccc32)CCCCC1)C(=O)N1CCC[C@H]1C(=O)N[C@@H](CCCNC(=N)N)C(=O)N1CCC[C@H]1C(=O)N[C@@H](CCCNC(=N)N)C(=O)N1CCC[C@H]1C(=O)N1CCC[C@H]1C(=O)N[C@@H](CCCNC(=N)N)C(=O)N1CCC[C@H]1C(=O)N[C@H](C(=O)N[C@@H](CCCNC(=N)N)C(N)=O)C(C)C [Cf-Chex1Arg20] (5FAM-[Ac6c]RPDKPRPYLPRPRPPRPVR-NH2) |  | 3.2 µM (≈ 9.07 µg/mL) |  | slightly more active | 4 mg/L (≈ 1.41 µM) | 4 mg/L (≈ 1.41 µM)
5 | CC(C)C[C@H](NC(=O)[C@H](Cc1ccc(O)cc1)NC(=O)[C@@H]1CCCN1C(=O)[C@H](CCCNC(=N)N)NC(=O)[C@@H]1CCCN1C(=O)[C@H](CCCCN)NC(=O)[C@H](CCCCN)NC(=O)[C@@H]1CCCN1C(=O)[C@H](CCCNC(=N)N)NC(=O)C1(NC(=O)c2ccc3c(c2)C(=O)OC32c3ccc(O)cc3Oc3cc(O)ccc32)CCCCC1)C(=O)N1CCC[C@H]1C(=O)N[C@@H](CCCNC(=N)N)C(=O)N1CCC[C@H]1C(=O)N[C@@H](CCCNC(=N)N)C(=O)N1CCC[C@H]1C(=O)N1CCC[C@H]1C(=O)N[C@@H](CCCNC(=N)N)C(=O)N1CCC[C@H]1C(=O)N[C@H](C(=O)N[C@@H](CCCNC(=N)N)C(N)=O)C(C)C [Cf-Chex1Arg20 D4K] (5FAM-[Ac6c]RPKKPRPYLPRPRPPRPVR-NH2) |  | 1.6 µM (≈ 4.55 µg/mL) |  | slightly less active | 8 mg/L (≈ 2.81 µM) | 8 mg/L (≈ 2.81 µM)

Source: paper PMC10800876, “Evaluation of proline-rich antimicrobial peptides as potential lead structures for novel antimycotics against Cryptococcus neoformans” (Frontiers in Microbiology, 2024)
